Experimental data reported in patent publication US9962113B2, “Sensor for measuring the activity of beta-pancreatic cells or of islets of langerhans, manufacture and use of such a sensor” (UNIVERSITE DE BORDEAUX 1, priority 2010, dated 2018).
Where no end group is shown, it is not given here.

System: β-pancreatic cells
Assay: Electrical signals (action potentials) of β-pancreatic cells in culture on the microelectrode sensor of FIG. 1
Format: cell-based
Method: In the example embodiment shown in FIG. 1, the sensor 2 includes a set of 60 microelectrodes distributed over 1 mm^2. The microelectrodes 21 have a disk shape 10 μm in diameter. The sensor 2 also includes β-pancreatic cells 23 in culture on the set of 60 microelectrodes 21. Laboratory tests have been conducted on the sensor 2 of FIG. 1. The first line of FIG. 2 specifies the times at which glucose is present at 20 mM, i.e. from 0 to 50 min. The second line specifies the times at which diazoxide is present at 200 μM, i.e. from around 13 to 16 min and around 27 to 35 min. […] An action potential waveform is visible at the dotted vertical line. The first line of FIG. 4 specifies the time at which the β-pancreatic cells 23 of the sensor 2 are placed in contact with the incretin hormone GLP-1, shown by a vertical arrow.

Compound | time after GLP-1 injection until electrical activation increases (FIG. 4) | electrical activation (action potentials) of the β-pancreatic cells after GLP-1 (FIG. 4, after injection of the incretin hormone GLP-1) | reversibility of the diazoxide effect on electrical activation (FIG. 2, after removal of diazoxide, glucose 20 mM alone) | physiological activity (action potentials) of the β-pancreatic cells of the sensor in the presence of diazoxide (FIG. 2, diazoxide 200 μM (around 13 to 16 min and 27 to 35 min) with glucose 20 mM)
GLP-1: incretin hormone, a physiological amplifier of the glucose response (HAEGTFTSDVSSYLEGQAAKEFIAWLVKGR; ends and bridges not checked; UniProt P01275 98-127, looked up) | twenty | increases significantly |  | 
CC1=NS(=O)(=O)c2cc(Cl)ccc2N1 [diazoxide] |  |  | not definitive | basal physiological activity
